This is an account of results in paper PMC6225423, “Synthesis, Structural and Thermal Studies of 3-(1-Benzyl-1,2,3,6-tetrahydropyridin-4-yl)-5-ethoxy-1H-indole (D2AAK1_3) as Dopamine D2 Receptor Ligand” (Molecules : A Journal of Synthetic Chemistry and Natural …, 2018).

The target of this assay is T1, human dopamine D2 receptor (Homo sapiens, UniProt P14416).
T1 construct: gene DRD2; cloned human D2S receptor
The assay can be described thus: [3H]spiperone competition radioligand binding, membranes of CHO-K1 cells stably expressing human D2S.

T1 sequence (P14416 1-414 isoform P14416-2): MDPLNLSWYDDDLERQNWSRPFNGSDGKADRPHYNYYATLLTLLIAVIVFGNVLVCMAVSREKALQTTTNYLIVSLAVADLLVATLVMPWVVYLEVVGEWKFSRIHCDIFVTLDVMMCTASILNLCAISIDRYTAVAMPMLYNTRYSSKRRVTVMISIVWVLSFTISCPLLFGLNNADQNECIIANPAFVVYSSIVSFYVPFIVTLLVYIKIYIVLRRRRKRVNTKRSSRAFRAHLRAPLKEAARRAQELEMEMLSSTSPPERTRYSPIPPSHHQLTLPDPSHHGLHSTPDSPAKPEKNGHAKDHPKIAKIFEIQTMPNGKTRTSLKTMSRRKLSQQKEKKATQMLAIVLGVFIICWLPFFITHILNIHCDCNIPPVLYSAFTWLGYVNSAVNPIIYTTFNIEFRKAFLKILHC

Turning to `CCOc1ccc2[nH]cc(C3=CCN(Cc4ccccc4)CC3)c2c1` [D2AAK1_3, 3-(1-Benzyl-1,2,3,6-tetrahydropyridin-4-yl)-5-ethoxy-1H-indole], affinity was put at a Ki of 151 nM.
